Data as given in patent publication US10034854B2, “Pharmaceutical composition with improved bioavailability” (Hoffmann-La Roche Inc., priority 2013, dated 2018).
≈ marks a conversion by molar mass, not a printed value. Where two headings read alike, the source gives them in different places. Each block holds one compound with its values, some of them ahead of it.

Legend:
[1] = Salt screening: solubility of various salts of Compound A; details: for solubility: salts of Compound A, at the pH of the same line
[2] = Caco-2 assay (permeability); type: in vitro ADME; details: human
Source text: The permeability of the compound is not high as determined with the Caco-2 assay value of 0.8×10^−6 cm/s. The poor solubility and the targeted high doses/frequency of dosing for this series of compounds led to the categorization of Compound A as BCS class IV compound (poor solubility/poor permeability).

[3] = Aqueous solubility of crystalline Compound A at physiological pHs; type: physicochemical
[4] = Pharmacokinetics / bioavailability in monkeys; details: IV, 1.25 mg/kg, fed
[5] = Animal pharmacokinetics study of formulations (FIG. 3); details: oral formulations
[6] = Solubility in bio-relevant fluids (FaSSIF, FeSSIF); type: physicochemical; details: thermodynamic from solid, 37° C.
Procedure: Approximately 5 mg of Compound A as MBP was placed in 20 mL of 37° C. bio-relevant fluids (Fasted State Simulated Intestinal Fluid and Fed State Simulated Intestinal Fluid) and was filtered through a 0.2 μm filter over time. The filtrate was then analyzed by HPLC.

[7] = pH belonging to the solubility value of the salt

Compound: [K+] [Potassium]
pH [1, 7]: 8.0
solubility [1]: 0.5 µg/mL

Compound: COc1cc(C(=O)O)ccc1NC(=O)[C@@H]1N[C@@H](CC(C)(C)C)[C@](C#N)(c2ccc(Cl)cc2F)[C@H]1c1cccc(Cl)c1F [Compound A, 4-{[(2R,3S,4R,5S)-4-(4-Chloro-2-fluoro-phenyl)-3-(3-chloro-2-fluoro-phenyl)-4-cyano-5-(2,2-dimethyl-propyl)-pyrrolidine-2-carbonyl]-amino}-3-methoxy-benzoic acid]
Papp [2]: 8 nm/s
solubility ([3]; aqueous medium, aqueous buffer, crystalline form, physiological pHs (pH 1.5-7.0)): < 0.05 µg/mL
solubility ([3]; pH 1.5, aqueous buffer, crystalline forms, in water at physiological pHs (pH1.5-8.0)): < 0.05 µg/mL
% AUC Extrap [4]: 0.7%
AUC/Dose [4]: 10.3 µg·h/mL/mg/kg

Compound: CS(=O)(=O)O [Methanesulfonic acid (Mesylate)]
pH [1]: 3.1

Compound: Sodium
pH [1, 7]: 7.2
solubility [1]: 0.7 µg/mL

Compound: Cc1ccc(S(=O)(=O)O)cc1 [p-Toluenesulfonic acid]
pH [1, 7]: 2.7
solubility [1]: <0.02 µg/mL

More lines, now with the values ahead:

aqueous solubility (in words) ([1]; among the salts identified in salt screening): most improved aqueous solubility
pH [1, 7]: 7.8
solubility [1]: >1400 µg/mL
bioavailability (exposure) (in words) [5]: not improved
Compound: CNC[C@H](O)[C@@H](O)[C@H](O)[C@H](O)CO [Meglamine]

solubility ([6]; Fasted State Simulated Intestinal Fluid (FaSSIF), FaSSIF): 2 µg/mL (≈ 3.24 µM)
solubility ([6]; Fed State Simulated Intestinal Fluid (FeSSIF), FeSSIF): 3 µg/mL (≈ 4.87 µM)
Compound: COc1cc(C(=O)O)ccc1NC(=O)[C@@H]1N[C@@H](CC(C)(C)C)[C@](C#N)(c2ccc(Cl)cc2F)[C@H]1c1cccc(Cl)c1F [Crystalline Form, 4-{[(2R,3S,4R,5S)-4-(4-Chloro-2-fluoro-phenyl)-3-(3-chloro-2-fluoro-phenyl)-4-cyano-5-(2,2-dimethyl-propyl)-pyrrolidine-2-carbonyl]-amino}-3-methoxy-benzoic acid]
